Measurements reported in US10570148B2, “N-alkyl-2-phenoxyethanamines, their preparation and use” (The Trustees of Columbia University In the City of New York, priority 2013, dated 2020).

Assays:
RBP4-TTR interaction [1] = biological target: T1, RBP4-TTR interaction (Homo sapiens, UniProt P02753); assay: TR-FRET (HTRF) assay for retinol-induced RBP4-TTR interaction; assay type: biochemical; design: human RBP4 fragment (amino acids 19-201); host or cells: Gold(DE3)pLysS E. coli strain (Stratagene), pMAL-c4x vector; conditions: analogs, present-tense paper example
From the text: TR-FPET Assay for Retinol-induced RBP4-TTR Interaction
Binding of a desired RBP4 antagonist displaces retinol and induces hindrance for RBP4-TTR interaction resulting in the decreased FRET signal (FIG. 7). Bacterially expressed MBP-RBP4 and untagged TTR were used in this assay. For the use in the TR-FRET assay the maltose binding protein (MBP)-tagged human RBP4 fragment (amino acids 19-201) was expressed in the Gold(DE3)pLysS E. coli strain (Stratagene) using the pMAL-c4x vector. Following cell lysis, recombinant RBP4 was purified from the soluble fraction using the ACTA FPLC system (GE Healthcare) equipped with the 5-ml the MBP Trap HP column. Human untagged TTR was purchased from Calbiochem. Untagged TTR was labeled directly with Eu^3+ Cryptate-NHS using the HTRF Cryptate Labeling kit from CisBio following the manufacturer's recommendations. HTRF assay was performed in white low volume 384 well plates (Greiner-Bio) in a final assay volume of 16 μl per well. The reaction buffer contained 10 mM Tris-HCl pH 7.5, 1 mM DTT, 0.05% NP-40, 0.05% Prionex, 6% glycerol, and 400 mM KF. Each reaction contained 60 nM […] and 2 nM TTR-Eu along with 26.7 nM of anti-MBP antibody conjugated with d2 (Cisbio). Titration of test compounds in this assay was conducted in the presence of 1 μM retinol. All reactions were assembled in the dark under dim red light and incubated overnight at +4° C. wrapped in aluminum foil. TR-FRET signal was measured in the SpectraMax M5e Multimode Plate Reader (Molecular Device). Fluorescence was excited at 337 nm and two readings per well were taken: Reading 1 for time-gated energy transfer from Eu(K) to d2 (337 nm excitation, […] emission, counting delay 75 microseconds, counting window 100 microseconds) and Reading 2 for Eu(K) time-gated fluorescence (337 nm excitation, 620 rum emission, counting delay 400 microseconds, counting window 400 microseconds). The TR-FRET signal was expressed as the ratio of fluorescence intensity: Flu665/Flu620×10,000.

RBP4 [2] = biological target: T2, RBP4 (Homo sapiens, UniProt P02753); assay: Scintillation proximity RBP4 binding assay (SPA); design: Untagged human RBP4 purified from urine of tubular proteinuria patients; purchased Fitzgerald Industries International; host or cells: urine of tubular proteinuria patients; conditions: analogs, present-tense paper example
Experimental: Scintillation Proximity RBP4 Binding Assay
Untagged human RBP4 purified from urine of tubular proteinuria patients was purchased from Fitzgerald Industries International. It was biotinylated using the EZ-Link Sulfo-NHS-LC-Biotinylation kit from Pierce following the manufacturer's recommendations. Binding experiments were performed in 96-well plates (OptiPlate, PerkinElmer) in a final assay volume of 100 μl per well in SPA buffer (1×PBS, pH 7.4, 1 mM EDTA, 0.1% BSA, 0.5% CHAPS). The reaction mix contained 10 nM ^3H-Retinol (48.7 Ci/mmol; PerkinElmer), 0.3 mg/well Streptavidin-PVT beads, 50 nM biotinylated RBP4 and a test compound. Nonspecific binding was determined in the presence of 20 µM of unlabeled retinol. The reaction mix was assembled in the dark under dim red light. The plates were sealed with clear tape (TopSeal-A: 96-well microplate, PerkinElmer), wrapped in the aluminum foil, and allowed to equilibrate 6 hours at room temperature followed by overnight incubation at +4° C. Radiocounts were measured using a TopCount NXT counter (Packard Instrument Company).

RBP4-TTR interaction [3] = biological target: T1, RBP4-TTR interaction; conditions: cited from earlier work
Abca4−/− mice = conditions: cited from earlier work
[4] = in vivo; cited from earlier work
mice = conditions: cited from earlier work
RBP4 [5] = biological target: T2, RBP4; conditions: cited from earlier work
[6] = tested on: retinal pigment epithelium cells; conditions: many cell types, including the retinal pigment epithelium cells; cited from earlier work

Q: Which melting point does the source give for `CN(CCOc1ccccc1C(C)(C)C)C(=O)c1c[nH]nn1` [Compound 12, N-(2-(2-(Tert-butyl)phenoxy)ethyl)-N-methyl-1H-1,2,3-triazole-5-carboxamide] here?
A: 148 to 151 °C

Q: Which melting point does the source give for `CN(CCOc1ccccc1C(C)(C)C)C(=O)C(=O)O` [Compound 13, 2-((2-(2-(Tert-butyl)phenoxy)ethyl)(methyl)amino)-2-oxoacetic Acid] here?
A: 98 to 101 °C

Q: With `CC(C)c1ccccc1OCCN(C)C(=O)Nc1ccccc1C(=O)O` [Compound 17, 2-(3-(2-(2-Isopropylphenoxy)ethyl)-3-methylureido)benzoic Acid] as the compound, how does the melting point read?
A: 146 to 149 °C

Q: For `CN(CCOc1ccccc1C(C)(C)C)C(=O)Nc1ccncc1C(=O)O` [Compound 18, 4-(3-(2-(2-(tert-butyl)phenoxy)ethyl)-3-methylureido)nicotinic Acid], which melting point is on record?
A: 218 to 220 °C

Q: For `CN(CCOc1ccc(Cl)cc1C(C)(C)C)C(=O)c1cn2ncccc2n1` [Compound 21, N-(2-(2-(tert-butyl)-4-chlorophenoxy)ethyl)-N-methylimidazo[1,2-b]pyridazine-2-carboxamide], which melting point is on record?
A: 73 to 78 °C

Q: Which melting point does the source give for `CN(CCOc1ccccc1C(C)(C)C)C(=O)c1n[nH]c2ccc(F)cc12` [Compound 22, N-(2-(2-(tert-butyl)phenoxy)ethyl)-5-fluoro-N-methyl-1H-indazole-3-carboxamide] here?
A: 186 to 190 °C

Q: With `CN(CCOc1ccccc1C(C)(C)C)C(=O)c1cn2ncccc2n1` [Compound 23, N-(2-(2-(Tert-butyl)phenoxy)ethyl)-N-methylimidazo[1,2-b]pyridazine-2-carboxamide] as the compound, how does the melting point read?
A: 75 to 80 °C

Q: For `CN(CCOc1ccccc1C(C)(C)C)C(=O)c1n[nH]c2ncccc12` [Compound 24, N-(2-(2-(Tert-butyl)phenoxy)ethyl)-N-methyl-1H-pyrazolo[3,4-b]pyridine-3-carboxamide], which melting point is on record?
A: 157 to 159 °C

Q: With `CN(CCOc1ccccc1C(C)(C)C)C(=O)c1nnc2n1CCOC2` [Compound 25, N-(2-(2-(Tert-butyl)phenoxy)ethyl)-N-methyl-6,8-dihydro-5H-[1,2,4]triazolo[3,4-c][1,4]oxazine-3-carboxamide] as the compound, how does the melting point read?
A: 116 to 120 °C

Q: Which melting point does the source give for `CN(CCOc1ccccc1C(C)(C)C)C(=O)c1n[nH]c2c1CN(S(C)(=O)=O)C2` [Compound 28, N-(2-(2-(Tert-butyl)phenoxy)ethyl)-N-methyl-5-(methylsulfonyl)-1,4,5,6-tetrahydropyrrolo[3,4-c]pyrazole-3-carboxamide] here?
A: 125 to 133 °C

Q: Which melting point does the source give for `CN(CCOc1ccccc1C(C)(C)C)C(=O)c1n[nH]c2c1CN(S(C)(=O)=O)CC2` [Compound 30, N-(2-(2-(tert-butyl)phenoxy)ethyl)-N-methyl-5-(methylsulfonyl)-4,5,6,7-tetrahydro-1H-pyrazolo[4,3-c]pyridine-3-carboxamide] here?
A: 226 to 230 °C

Q: Which melting point does the source give for `CN(CCOc1ccccc1C(C)(C)C)C(=O)c1n[nH]c2c1CCN(S(C)(=O)=O)C2` [Compound 33, N-(2-(2-(Tert-butyl)phenoxy)ethyl)-N-methyl-6-(methylsulfonyl)-4,5,6,7-tetrahydro-1H-pyrazolo[3,4-c]pyridine-3-carboxamide] here?
A: 233 to 237 °C

Q: For `CN1CCc2c(C(=O)N(C)CCOc3ccccc3C(C)(C)C)n[nH]c2C1` [Compound 34, N-(2-(2-(Tert-butyl)phenoxy)ethyl)-N,6-dimethyl-4,5,6,7-tetrahydro-1H-pyrazolo[3,4-c]pyridine-3-carboxamide], which melting point is on record?
A: 159 to 161 °C

Q: For `COC(=O)c1cc(C)nc(N(C)CCOc2ccccc2C(C)(C)C)n1` [Compound 36, methyl 2-((2-(2-(tert-butyl)phenoxy)ethyl)(methyl)amino)-6-methylpyrimidine-4-carboxylate], which “antagonism of retinol-dependent RBP4-TTR interaction (HTRF)” value (RBP4-TTR interaction [1]) is on record?
A: antagonize retinol-dependent RBP4-TTR interaction

Q: And the “RBP4 binding (SPA)” value (RBP4 [2])?
A: bind to RBP4

Q: What does the source list for `Cc1cc(C(=O)O)nc(N(C)CCOc2ccccc2C(C)(C)C)n1` [Compound 37, 2-((2-(2-(tert-butyl)phenoxy)ethyl)(methyl)amino)-6-methylpyrimidine-4-carboxylic acid]?
A: antagonism of retinol-dependent RBP4-TTR interaction (HTRF) (RBP4-TTR interaction [1]): antagonize retinol-dependent RBP4-TTR interaction; RBP4 binding (SPA) (RBP4 [2]): bind to RBP4

Q: What does the source list for `COC(=O)c1cc(C)nc(N(C)CCOc2cc(C(F)(F)F)cc(C(F)(F)F)c2)n1` [Compound 38, methyl 2-((2-(3,5-bis(trifluoromethyl)phenoxy)ethyl)(methyl)amino)-6-methylpyrimidine-4-carboxylate]?
A: antagonism of retinol-dependent RBP4-TTR interaction (HTRF) (RBP4-TTR interaction [1]): antagonize retinol-dependent RBP4-TTR interaction; RBP4 binding (SPA) (RBP4 [2]): bind to RBP4

Q: Which “antagonism of retinol-dependent RBP4-TTR interaction (HTRF)” value (RBP4-TTR interaction [1]) does the source give for `Cc1cc(C(=O)O)nc(N(C)CCOc2cc(C(F)(F)F)cc(C(F)(F)F)c2)n1` [Compound 39, 2-((2-(3,5-bis(trifluoromethyl)phenoxy)ethyl)(methyl)amino)-6-methylpyrimidine-4-carboxylic acid] here?
A: antagonize retinol-dependent RBP4-TTR interaction

Q: And the “RBP4 binding (SPA)” value (RBP4 [2])?
A: bind to RBP4

Q: What does the source list for `CC1=C(/C=C/C(C)=C/C=C/C(C)=C/C(=O)Nc2ccc(O)cc2)C(C)(C)CCC1` [fenretinide, N-(4-hydroxy-phenyl)retinamide]?
A: disruption of the RBP4-TTR interaction (RBP4-TTR interaction [3]): disrupt the RBP4-TTR interaction; A2E production (Abca4−/− mice; Abca4−/− mice, animal model of excessive bisretinoid accumulation): reduced A2E production; ocular all-trans retinol uptake (Abca4−/− mice; mouse, in vivo): inhibit ocular all-trans retinol uptake; visual cycle (Abca4−/− mice; mouse, in vivo): slow down the visual cycle; serum RBP4 and retinol [4]: reduce serum RBP4 and retinol; formation of hemangiosarcomas (mice): stimulate formation of hemangiosarcomas; binding to RBP4 (RBP4 [5]): bind to RBP4; displacement of all-trans retinol from RBP4 (RBP4 [5]): displace all-trans retinol from RBP4; induction of apoptosis [6]: extremely active inducer of apoptosis
